The source of these data is US20070197660A1, “Compounds for modulating cell proliferation” (The Hospital for Sick Children, priority 2003, published 2007).

SMILES strings stand for the structures. Read-outs that look alike come from different tables or passages of the source.

What all share (format): cell-based
For assay [1], the system named is Z119 cells. Description: Killing of Philadelphia positive Z119 acute lymphoblastic leukemia cells in culture (colony assay). As to conditions: 168 h, Z119 Ph+ ALL cells, colonies >20 cells counted at 7 days or earlier, methylcellulose, read-out: ALL (Z 119) IC 50. The method, then:
Z119 cells are plated in 1 mL volumes at a density of 1×10^4 cells/mL, in the absence of exogenous growth factors, into 35 mm petri dishes (Nunc, Gibco) containing IMDM (OCI, Toronto) plus 20% FCS (Cansera Rexdale, ON) in 0.9% (vol/vol) methylcellulose (Fluka, Switzerland) with various concentrations of test compounds. Cultures are set at 37° C., 5% CO2 in a humidified atmosphere. Colonies consisting of more than 20 cells are counted at 7 days or earlier using an inverted microscope. Results see Tables 4 and 8.

Assay [2] deals with OCI-AML-3 cells. The assay can be described thus: Killing of AML3 acute myeloid leukemia cells in culture (colony assay). The following applies: Homo sapiens, colonies >20 cells scored at 5-6 days, methylcellulose. Here is the method: OCI-AML-3 cells are plated in 35 mm petri dishes (Nunc, Gibco) in 1 mL volumes at a density of 3.3×10^3 cells/mL, in the absence of exogenous growth factors, containing alpha MEM plus 20% FCS (Cansera, Rexdale Ont.), and 0.9% (vol/vol) methylcellulose (Fluka, Switzerland) and various concentrations of test compounds. Cell cultures are incubated in a humidified atmosphere at 37° C. with 5% CO2. Colonies containing more than 20 cells are scored, using an inverted microscope, at 5-6 days. Results see Tables 4 and 8.

Assay [3] deals with NBM (BFU-E). The assay can be described thus: Effect upon normal bone marrow differentiation in culture (CFU-GEMM assay, BFU-E). As to conditions: BFU-E colonies. From the text: A CFU-GEMM assay may be performed according to Fauser and Messner (1978, Blood, 52(6) 143-8) and Messner and Fausser (1980, Blut, 41(5) 327-33).
Where [4] appears, read: Table 4, read-out: AML (OCI AML-3) IC 50.
Where [5] appears, read: Table 4, read-out: NBM (BFU-E) IC 50.
Where [6] appears, read: Table 8, read-out: AML (OCI AML-3) IC 50.
Setting [7] is: Table 8, read-out: NBM (BFU-E) IC 50.

Take `COCCOCCOCCOC(=O)/C(C#N)=C/C=C/c1ccc(O)c(O)c1` [CRIV-42, 2-Cyano-5-(3,4-dihydroxyphenyl)-penta-2E,4E-dienoic acid 2-[2-(2-methoxyethoxy)ethoxy]ethyl ester]: the IC50 in assay [1] (Table 4) is not below 500 nM; in assay [2] (setting [4]), 90 nM; in assay [3] (setting [5]) it was not below 10000 nM.
The like results for `COc1cc(/C=C/C=C(\C#N)C(=O)OCc2ccccc2)cc(OC)c1O` [CRIX-38, 2-Cyano-5-(4-hydroxy-3,5-dimethoxyphenyl)-penta-2E,4E-dienoic acid benzyl ester] were, in that order, more than 1000 nM, more than 500 nM and not above 10000 nM.
For `N#C/C(=C\C=C\c1ccc(O)c(O)c1)C(=O)OCc1ccccc1` [CRIX-39, 2-Cyano-5-(3,4-dihydroxyphenyl)-penta-2E,4E-dienoic acid benzyl ester] the same measures were not below 600 nM, 90 nM and 8000 nM.
In the case of `N#C/C(=C\C=C\c1ccc(O)c(O)c1)S(=O)(=O)c1ccccc1` [CRVIII-33, 2-Benzenesulfonyl-5-(3,4-dihydroxyphenyl)-penta-2E,4E-dienenitrile], the IC50 is not below 550 nM in assay [1] (Table 8), more than 500 nM in assay [2] (setting [6]) and 12000 nM in assay [3] (setting [7]).
The like results for `COc1cc(/C=C/C=C(\C#N)S(=O)(=O)c2ccccc2)cc(OC)c1O` [CRVIII-34, 2-Benzenesulfonyl-5-(4-hydroxy-3,5-dimethoxyphenyl)-penta-2E,4E-dienenitrile] were, in that order, more than 1000 nM, more than 500 nM and not above 10000 nM.
The like results for `N#C/C(=C\C=C\c1ccc([N+](=O)[O-])cc1)S(=O)(=O)c1ccccc1` [CRVIII-35, 2-Benzenesulfonyl-5-(4-nitrophenyl)-penta-2E,4E-dienenitrile] were, in that order, more than 1000 nM, more than 500 nM and more than 5000 nM.
Turning to `N#C/C(=C\C=C\c1ccc(O)c(O)c1)S(=O)(=O)c1ccccn1` [CRVIII-50, 5-(3,4-Dihydroxyphenyl)-2-(pyridine-2-sulfonyl)-penta-2E,4E-dienenitrile], the results for the IC50 in assay [1] (Table 8), in assay [2] (setting [6]) and in assay [3] (setting [7]) were not below 170 nM, not below 250 nM and not above 5000 nM, respectively.
The like results for `N#C/C(=C\C=C\c1ccc(O)c(O)c1)S(=O)(=O)c1ccc(Cl)cc1` [CRVIII-51, 2-(4-Chlorobenzenesulfonyl)-5-(3,4-dihydroxyphenyl)-penta-2E,4E-dienenitrile] were, in that order, 230 nM, 250 to 500 nM and not below 5000 nM.
For the compound `Cc1ccc(S(=O)(=O)/C(C#N)=C/C=C/c2ccc(O)c(O)c2)cc1` [CRVIII-52, 5-(3,4-Dihydroxyphenyl)-2-(toluene-4-sulfonyl)-penta-2E,4E-dienenitrile], the IC50 in assay [1] (Table 8) was 250 to 500 nM; in assay [2] (setting [6]), 250 to 500 nM; in assay [3] (setting [7]), not above 10000 nM.
Take `CS(=O)(=O)/C(C#N)=C/C=C/c1ccc(O)c(O)c1` [CRVIII-53, 5-(3,4-Dihydroxyphenyl)-2-methanesulfonyl-penta-2E,4E-dienenitrile]: the IC50 in assay [1] (Table 8) is 450 nM; in assay [2] (setting [6]), 250 to 500 nM; in assay [3] (setting [7]), not above 10000 nM.
As to `COCCOCCOCCOC(=O)/C(C#N)=C/C=C/c1cc(OC)c(O)c(OC)c1` [GRIV-46, 2-Cyano-5-(4-hydroxy-3,5-dimethoxyphenyl)-penta-2E,4E-dienoic acid 2-[2-(2-methoxyethoxy)ethoxy]ethyl ester], the IC50 was more than 500 nM in assay [1] (Table 4), not below 500 nM in assay [2] (setting [4]) and not below 10000 nM in assay [3] (setting [5]).
